# Measurements reported in ChEMBL document CHEMBL1201862, “PubChem BioAssay data set” (2004).
#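 Interpolation was linear, between the two tested concentrations surrounding the appropriate level; five concentrations were tested over 48 hours in 96-well plates. The concentration for 50% growth inhibition is given as GI50.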 Calls of active or inactive are those of the source. No stated cut-off is given here; in the data, active = GI50 up to about 1.1 µM and inactive = higher.
# Tests used:
# Assay in all cases: NCI tumour cell line growth inhibition, 48 h
# ACHN = test system: ACHN
# COLO 205 = test system: COLO 205
# HCT-116 = test system: HCT-116
# HOP-92 = test system: HOP-92
# Hs-578T = test system: Hs-578T
# K562 = test system: K562
# KM12 = test system: KM12
# LOX IMVI = test system: LOX IMVI
# M14 = test system: M14
# MDA-MB-231 = test system: MDA-MB-231
# NCI-H23 = test system: NCI-H23
# OVCAR-5 = test system: OVCAR-5
# OVCAR-8 = test system: OVCAR-8
# SF-295 = test system: SF-295
# SF-539 = test system: SF-539
# SK-MEL-28 = test system: SK-MEL-28
# SK-MEL-5 = test system: SK-MEL-5
# SW-620 = test system: SW-620
# HL-60 = test system: HL-60
# OVCAR-3 = test system: OVCAR-3
Compound,GI50 (ACHN),GI50 (COLO 205),GI50 (HCT-116),GI50 (HOP-92),GI50 (Hs-578T),GI50 (K562),GI50 (KM12),GI50 (LOX IMVI),GI50 (M14),GI50 (MDA-MB-231),GI50 (NCI-H23),GI50 (OVCAR-5),GI50 (OVCAR-8),GI50 (SF-295),GI50 (SF-539),GI50 (SK-MEL-28),GI50 (SK-MEL-5),GI50 (SW-620),GI50 (HL-60),GI50 (OVCAR-3)
Cn1c2ccccc2c2c3c(c4c5ccccc5n(C)c4c21)C(=O)N(Cc1ccccc1)C3=O,> 100 µM (inactive),> 100 µM (inactive),> 100 µM (inactive),> 100 µM (inactive),> 100 µM (inactive),> 100 µM (inactive),> 100 µM (inactive),> 100 µM (inactive),> 100 µM (inactive),> 100 µM (inactive),> 100 µM (inactive),> 100 µM (inactive),> 100 µM (inactive),> 100 µM (inactive),> 100 µM (inactive),> 100 µM (inactive),77.4 µM (inactive),> 100 µM (inactive),–,–
CCCCc1c(O)nc(Nc2nc3ccccc3[nH]2)[nH]c1=O,> 100 µM (inactive),> 100 µM (inactive),> 100 µM (inactive),–,23.3 µM (inactive),> 100 µM (inactive),> 100 µM (inactive),> 100 µM (inactive),> 100 µM (inactive),> 100 µM (inactive),> 100 µM (inactive),> 100 µM (inactive),> 100 µM (inactive),> 100 µM (inactive),> 100 µM (inactive),> 100 µM (inactive),> 100 µM (inactive),> 100 µM (inactive),> 100 µM (inactive),> 100 µM (inactive)
Cc1ccccc1/N=N/c1cc(C)c(/N=N/c2c(O)ccc3ccccc23)cc1C,> 100 µM (inactive),> 100 µM (inactive),> 100 µM (inactive),> 100 µM (inactive),55.8 µM (inactive),> 100 µM (inactive),> 100 µM (inactive),> 100 µM (inactive),> 100 µM (inactive),> 100 µM (inactive),> 100 µM (inactive),> 100 µM (inactive),> 100 µM (inactive),> 100 µM (inactive),–,> 100 µM (inactive),> 100 µM (inactive),> 100 µM (inactive),–,> 100 µM (inactive)
O=C(/C=C/c1cccs1)c1ccc([N+](=O)[O-])cc1,> 100 µM (inactive),> 100 µM (inactive),58.1 µM (inactive),–,65.5 µM (inactive),66.1 µM (inactive),71.9 µM (inactive),74.5 µM (inactive),> 100 µM (inactive),> 100 µM (inactive),> 100 µM (inactive),–,> 100 µM (inactive),90.8 µM (inactive),> 100 µM (inactive),> 100 µM (inactive),> 100 µM (inactive),> 100 µM (inactive),83.2 µM (inactive),–
COc1ccc(/C=C/c2cc(OC)c(OC)c(OC)c2)cc1O[Si](C)(C)C(C)(C)C,7.87 µM (inactive),15.7 µM (inactive),2.77 µM (inactive),15.6 µM (inactive),3.15 µM (inactive),–,–,–,5.97 µM (inactive),5.02 µM (inactive),5.62 µM (inactive),33.5 µM (inactive),2.74 µM (inactive),26 µM (inactive),2.32 µM (inactive),25.1 µM (inactive),1.98 µM (inactive),2.91 µM (inactive),–,–
O=C1CCCCCCCCCCC1CN1CCCC1 (stereo not given),54.8 µM (inactive),20.1 µM (inactive),33.4 µM (inactive),–,17.9 µM (inactive),53.8 µM (inactive),25.6 µM (inactive),19.4 µM (inactive),20.1 µM (inactive),47.9 µM (inactive),36.1 µM (inactive),22.3 µM (inactive),45.4 µM (inactive),29.9 µM (inactive),22.1 µM (inactive),22.1 µM (inactive),17.6 µM (inactive),39.3 µM (inactive),32 µM (inactive),67.5 µM (inactive)
O=[N+]([O-])c1ccc(N2N=C(c3c(O)ccc4ccccc34)CC2c2ccc(Cl)cc2)c([N+](=O)[O-])c1 (stereo not given),27.4 µM (inactive),16.1 µM (inactive),15.3 µM (inactive),26 µM (inactive),27.4 µM (inactive),5.28 µM (inactive),5.65 µM (inactive),–,18.5 µM (inactive),23.8 µM (inactive),19.1 µM (inactive),17.1 µM (inactive),21.7 µM (inactive),4.59 µM (inactive),30.1 µM (inactive),46.9 µM (inactive),20.4 µM (inactive),25.3 µM (inactive),–,29.9 µM (inactive)
ClCCN(CCCl)c1ccc(/C=N/Nc2ccnc3ccccc23)cc1,1.84 µM (inactive),1.86 µM (inactive),1.21 µM (inactive),1.64 µM (inactive),2.23 µM (inactive),1.39 µM (inactive),1.58 µM (inactive),1.44 µM (inactive),2.02 µM (inactive),1.89 µM (inactive),2.01 µM (inactive),1.5 µM (inactive),1.41 µM (inactive),1.31 µM (inactive),1.41 µM (inactive),1.63 µM (inactive),1.66 µM (inactive),1.87 µM (inactive),–,1.88 µM (inactive)
C1CCCN(NC2=NCCO2)CC1,> 100 µM (inactive),> 100 µM (inactive),> 100 µM (inactive),–,> 100 µM (inactive),> 100 µM (inactive),> 100 µM (inactive),> 100 µM (inactive),> 100 µM (inactive),> 100 µM (inactive),> 100 µM (inactive),> 100 µM (inactive),> 100 µM (inactive),> 100 µM (inactive),> 100 µM (inactive),–,> 100 µM (inactive),> 100 µM (inactive),> 100 µM (inactive),> 100 µM (inactive)
Cc1cc(S(=O)(=O)N/C(=N/N)NCCc2ccccc2)c(S)cc1Cl,–,49.3 µM (inactive),25.1 µM (inactive),–,25.5 µM (inactive),30.6 µM (inactive),23.4 µM (inactive),29.6 µM (inactive),24.1 µM (inactive),29.6 µM (inactive),–,19.5 µM (inactive),18.9 µM (inactive),–,24 µM (inactive),20.7 µM (inactive),19.2 µM (inactive),24 µM (inactive),44.1 µM (inactive),24.5 µM (inactive)
CC(C)CCNC(=O)C(CC(C)C)NC(=O)[C@H]1O[C@@H]1C(=O)O (stereo not given in full),–,> 100 µM (inactive),> 100 µM (inactive),> 100 µM (inactive),> 100 µM (inactive),> 100 µM (inactive),> 100 µM (inactive),–,> 100 µM (inactive),> 100 µM (inactive),> 100 µM (inactive),> 100 µM (inactive),> 100 µM (inactive),> 100 µM (inactive),> 100 µM (inactive),> 100 µM (inactive),> 100 µM (inactive),> 100 µM (inactive),–,> 100 µM (inactive)
Cc1nc(N)c(N2CCN(S(N)(=O)=O)CC2)c(O)n1,> 100 µM (inactive),> 100 µM (inactive),> 100 µM (inactive),–,> 100 µM (inactive),> 100 µM (inactive),> 100 µM (inactive),> 100 µM (inactive),> 100 µM (inactive),> 100 µM (inactive),> 100 µM (inactive),> 100 µM (inactive),> 100 µM (inactive),> 100 µM (inactive),> 100 µM (inactive),> 100 µM (inactive),–,> 100 µM (inactive),> 100 µM (inactive),> 100 µM (inactive)
O=C1C(c2c(O)[nH]c3ccc(F)cc23)=Nc2ccccc21,> 100 µM (inactive),> 100 µM (inactive),> 100 µM (inactive),10.9 µM (inactive),13.6 µM (inactive),44.2 µM (inactive),> 100 µM (inactive),> 100 µM (inactive),> 100 µM (inactive),12.9 µM (inactive),73.1 µM (inactive),> 100 µM (inactive),8.13 µM (inactive),27.4 µM (inactive),–,> 100 µM (inactive),> 100 µM (inactive),> 100 µM (inactive),–,> 100 µM (inactive)
COC(=O)C1CCC(=S)N1C(=O)c1ccccc1 (stereo not given),> 100 µM (inactive),> 100 µM (inactive),> 100 µM (inactive),> 100 µM (inactive),> 100 µM (inactive),4.94 µM (inactive),> 100 µM (inactive),–,> 100 µM (inactive),> 100 µM (inactive),> 100 µM (inactive),> 100 µM (inactive),> 100 µM (inactive),> 100 µM (inactive),–,> 100 µM (inactive),> 100 µM (inactive),–,–,> 100 µM (inactive)
O=C1CCC(=O)N1n1c(Cc2ccccc2)n[nH]c1=O,> 100 µM (inactive),> 100 µM (inactive),> 100 µM (inactive),–,> 100 µM (inactive),> 100 µM (inactive),7.29 µM (inactive),> 100 µM (inactive),> 100 µM (inactive),> 100 µM (inactive),–,> 100 µM (inactive),> 100 µM (inactive),> 100 µM (inactive),–,> 100 µM (inactive),> 100 µM (inactive),> 100 µM (inactive),–,> 100 µM (inactive)
N=c1c2sc3nc4ccccc4n3c2ncn1Cc1ccccc1,> 100 µM (inactive),> 100 µM (inactive),> 100 µM (inactive),> 100 µM (inactive),> 100 µM (inactive),–,0.957 µM (active),> 100 µM (inactive),> 100 µM (inactive),> 100 µM (inactive),> 100 µM (inactive),> 100 µM (inactive),> 100 µM (inactive),> 100 µM (inactive),> 100 µM (inactive),> 100 µM (inactive),> 100 µM (inactive),> 100 µM (inactive),–,> 100 µM (inactive)
